US9029336B2, “Xenobiotic related induction of gene expression” (The University of Sydney, priority 1998, dated 2015)

Target: T1, hPXR (Homo sapiens, UniProt O75469)
T1 sequence (O75469 1-434): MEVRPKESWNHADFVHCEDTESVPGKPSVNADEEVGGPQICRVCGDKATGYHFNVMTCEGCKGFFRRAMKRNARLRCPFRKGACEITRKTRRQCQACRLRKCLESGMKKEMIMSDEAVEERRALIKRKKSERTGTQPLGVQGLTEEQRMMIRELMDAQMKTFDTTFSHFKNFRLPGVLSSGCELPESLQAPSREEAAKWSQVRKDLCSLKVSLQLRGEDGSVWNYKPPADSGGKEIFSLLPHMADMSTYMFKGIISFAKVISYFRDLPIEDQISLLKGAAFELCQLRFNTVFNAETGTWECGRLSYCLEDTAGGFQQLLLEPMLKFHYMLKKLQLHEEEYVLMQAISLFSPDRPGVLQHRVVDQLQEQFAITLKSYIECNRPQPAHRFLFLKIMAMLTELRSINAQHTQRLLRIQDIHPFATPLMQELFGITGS
Assay: CYP3A4 XREM reporter construct cotransfected with hPXR expression vector (pSG-hPXR) in HepG2 cells
Details: FIG. 4; for action on the XREM via the hPXR: HepG2, XREM reporter + hPXR expression vector
Description: The present inventors cotransfected a CYP3A4 5′-flanking region construct, containing the XREM and linked to a luciferase reporter, into HepG2 cells either with or without a hPXR expression construct (pSG-hPXR).
Many drugs induce the transcription of the CYP3A4 gene.

Q: What does the source list for `Clc1ccccc1C(c1ccccc1)(c1ccccc1)n1ccnc1` [clotrimazole]?
A: action on the XREM via the hPXR: act on the XREM via the hPXR; induction of the XREM construct (HepG2 cells transfected with XREM reporter): induced the XREM construct in a manner analogous to that that occurs in vivo

Q: How did the “action on the XREM via the hPXR” value turn out when `CCC1(c2ccccc2)C(=O)NC(=O)NC1=O` [phenobarbitone] was run?
A: The value was “act on the XREM via the hPXR”.
